Experiments:
[1] = target: T1, 20S Human Erythrocyte Proteasome (HEP) (Homo sapiens, UniProt P20618+P28074); experiment: Chymotrypsin-like activity of 20S Human Erythrocyte Proteasome (HEP), IC50 determination; format: biochemical; settings: assay of Example C, inhibition of HEP
T1 construct: 20S Human Erythrocyte Proteasome (HEP), purchased from Immatics Biotechnologies Inc; purchased Immatics Biotechnologies Inc., Tübingen, Germany; host or cells: human erythrocytes (natural source)
Summary of the method: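 20S proteasome at 0.2 μg/mL (about 0.6 nM catalytic sites) in 20 mM Tris with 0.04% SDS, preincubated 15 min at 37° C with inhibitor before Suc-LLVY-AMC (100 μM final). AMC fluorescence read in the linear range; triplicates, IC50 from concentration series.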

[2] = target: T2, proteasome in Molt-4 cells (human leukemia) (Homo sapiens, UniProt P20618+P28074); format: cell-based; settings: assay of Example E, inhibition of MOLT4; read-out: MOLT4 (EC50)
T2 sequence (P28074 60-263): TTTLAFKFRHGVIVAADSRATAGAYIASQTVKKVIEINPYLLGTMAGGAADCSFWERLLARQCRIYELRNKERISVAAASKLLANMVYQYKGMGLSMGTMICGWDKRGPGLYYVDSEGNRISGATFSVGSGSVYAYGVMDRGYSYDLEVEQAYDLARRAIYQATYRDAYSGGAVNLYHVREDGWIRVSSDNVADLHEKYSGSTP
T2 sequence (P20618 29-241): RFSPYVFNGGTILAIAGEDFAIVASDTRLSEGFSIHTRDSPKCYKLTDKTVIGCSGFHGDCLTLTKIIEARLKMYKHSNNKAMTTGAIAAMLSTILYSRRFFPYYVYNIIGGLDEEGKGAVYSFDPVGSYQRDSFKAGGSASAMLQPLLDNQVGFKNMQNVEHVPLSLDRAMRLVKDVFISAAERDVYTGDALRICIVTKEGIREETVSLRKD
Summary of the method: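 Intact Molt-4 cells (6×10^6 cells/mL) in HEPES-buffered saline were preincubated with inhibitor 15 min at 37 °C, then given cell-permeable MeOSuc-FLF-AFC at 25 μM final.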

| IC50 [1] [nM] | EC50 [2] [nM] | SMILES |
| --- | --- | --- |
| < 10 | < 200 | CCCCc1ccc(C(=O)N[C@@H](CNC(=O)Nc2ccccc2)C(=O)N[C@@H](CC(C)C)B2O[C@@H]3C[C@@H]4C[C@@H](C4(C)C)[C@]3(C)O2)cc1 [D.24.12, 4-Butylbenzamide, N-[(1S)-1-[[[(1R)-1-[(3aS,4S,6S,7aR)-hexahydro-3a,5,5-trimethyl-4,6-methano-1,3,2-benzodioxaborol-2-yl]-3-methylbutyl]amino]carbonyl]-2-(3-phenyl-ureido)ethyl]-] |
| < 10 | 2000 to 10000 | Cc1ccc(C)c(CC(=O)N[C@@H](CCCNC(=N)N[N+](=O)[O-])C(=O)N[C@@H](CC(C)C)B(O)O)c1 [E.2.56, Boronic acid, [(1R)-1-[[(2S)-5-[[imino(nitroamino)methyl]amino]-2-[[2-(2,5-dimethylphenyl)acetyl]amino]-1-oxopentyl]amino]-3-methylbutyl]] |
| < 100 | 2000 to 10000 | CC(C)C[C@H](NC(=O)[C@H](CCCNC(=N)N[N+](=O)[O-])NC(=O)CCCCCO)B1O[C@@H]2C[C@@H]3C[C@@H](C3(C)C)[C@]2(C)O1 [D.3.192, 6-hydroxyhexanamide, N-[(1S)-1-[[[(1R)-1-[(3aS,4S,6S,7aR)-hexahydro-3a,5,5-trimethyl-4,6-methano-1,3,2-benzodioxaborol-2-yl]-3-methylbutyl]amino]carbonyl]-4-[[imino(nitroamino)methyl]amino]butyl]] |
| < 10 | < 200 | CC(C)C[C@H](NC(=O)[C@H](CCCNC(=N)N[N+](=O)[O-])NC(=O)CCCc1cccs1)B1O[C@@H]2C[C@@H]3C[C@@H](C3(C)C)[C@]2(C)O1 [D.3.126, 4-(Thiophen-2-yl)butanamide,N-[(1S)-1-[[[(1R)-1-[(3aS,4S,6S,7aR)-hexahydro-3a,5,5-trimethyl-4,6-methano-1,3,2-benzodioxaborol-2-yl]-3-methylbutyl]amino]carbonyl]-4-[[imino(nitroamino)methyl]amino]butyl]] |
| < 10 | > 10000 | COCCOCCOCC(=O)N[C@@H](CCCNC(=N)N[N+](=O)[O-])C(=O)N[C@@H](CC(C)C)B(O)O [E.1.8, Boronic acid, [(1R)-1-[[(2S)-5-[[imino(nitroamino)methyl]amino]-2-[[2-[2-(2-methoxyethoxy)ethoxy]acetyl]amino]-1-oxopentyl]amino]-3-methylbutyl]] |
| < 10 | < 200 | CCCCc1ccc(C(=O)N[C@@H](CNC(=O)c2cccnc2)C(=O)N[C@@H](CC(C)C)B2O[C@@H]3C[C@@H]4C[C@@H](C4(C)C)[C@]3(C)O2)cc1 [D.24.15, 4-butylbenzamide, N-[(1S)-1-[[[(1R)-1-[(3aS,4S,6S,7aR)-hexahydro-3a,5,5-trimethyl-4,6-methano-1,3,2-benzodioxaborol-2-yl]-3-methylbutyl]amino]carbonyl]-2-(nicotinonylamino)ethyl]-] |
| < 100 | < 200 | CC(C)C[C@H](NC(=O)[C@@H](NS(=O)(=O)c1ccc2ccccc2c1)[C@@H](C)O)B(O)O [E.3.4, Boronic acid, [(1R)-1-[[(2S,3R)-3-hydroxy-2-[(naphthalene-2-sulfonyl)amino]-1-oxobutyl]amino]-3-methylbutyl]] |
| < 10 | < 200 | CC(C)CCCC(=O)N[C@@H](CCCNC(=N)N[N+](=O)[O-])C(=O)N[C@@H](CC(C)C)B1O[C@@H]2C[C@@H]3C[C@@H](C3(C)C)[C@]2(C)O1 [D.3.38] |
| < 10 | < 200 | Cc1ccc(CCCC(=O)N[C@@H](CCCNC(=N)N[N+](=O)[O-])C(=O)N[C@@H](CC(C)C)B2O[C@@H]3C[C@@H]4C[C@@H](C4(C)C)[C@]3(C)O2)cc1 [D.3.36, 4-(4-methylphenyl)butanamide,N-[(1S)-1-[[[(1R)-1-[(3aS,4S,6S,7aR)-hexahydro-3a,5,5-trimethyl-4,6-methano-1,3,2-benzodioxaborol-2-yl]-3-methylbutyl]amino]carbonyl]-4-[[imino(nitroamino)methyl]amino]butyl]] |
| < 100 | > 10000 | CC(=O)N1CCC[C@H]1C(=O)N[C@@H](CCCNC(=N)N[N+](=O)[O-])C(=O)N[C@@H](CC(C)C)B(O)O [E.2.51, Boronic acid, [(1R)-1-[[(2S)-5-[[imino(nitroamino)methyl]amino]-2-[((2S)-1-acetylpyrrolidine-2-carbonyl)amino]-1-oxopentyl]amino]-3-methylbutyl]] |
| < 10 | < 200 | CC(C)C[C@H](NC(=O)[C@H](CCCNC(=N)N[N+](=O)[O-])NC(=O)CCCCCc1ccccc1)B1O[C@@H]2C[C@@H]3C[C@@H](C3(C)C)[C@]2(C)O1 [D.3.131, 6-Phenylhexanamide,N-[(1S)-1-[[[(1R)-1-[(3aS,4S,6S,7aR)-hexahydro-3a,5,5-trimethyl-4,6-methano-1,3,2-benzodioxaborol-2-yl]-3-methylbutyl]amino]carbonyl]-4-[[imino(nitroamino)methyl]amino]butyl]] |
| < 10 | < 200 | CCc1ccc(CCC(=O)N[C@@H](CCCNC(=N)N[N+](=O)[O-])C(=O)N[C@@H](CC(C)C)B2O[C@@H]3C[C@@H]4C[C@@H](C4(C)C)[C@]3(C)O2)cc1 [D.3.191, 3-[4-(Ethyl)phenyl]propanamide, N-[(1S)-1-[[[(1R)-1-[(3aS,4S,6S,7aR)-hexahydro-3a,5,5-trimethyl-4,6-methano-1,3,2-benzodioxaborol-2-yl]-3-methylbutyl]amino]carbonyl]-4-[[imino(nitroamino)methyl]amino]butyl]] |
| < 10 | > 10000 | CC(C)C[C@H](NC(=O)[C@H](CCCNC(=N)N[N+](=O)[O-])NC(=O)CCS(=O)(=O)c1ccccc1)B(O)O [E.2.70, Boronic acid, [(1R)-1-[[(2S)-5-[[imino(nitroamino)methyl]amino]-2-[[3-(benzenesulfonyl)propanoyl]amino]-1-oxopentyl]amino]-3-methylbutyl]] |
| < 10 | 2000 to 10000 | CC(C)C[C@H](NC(=O)[C@H](CCCNC(=N)N[N+](=O)[O-])NC(=O)C1(c2ccccc2)CCCC1)B(O)O [E.2.3, Boronic acid, [(1R)-1-[[(2S)-5-[[imino(nitroamino)methyl]amino]-2-[(1-phenylcyclopentanecarbnyl)amino]-1-oxopentyl]amino]-3-methylbutyl]] |
| < 10 | < 200 | CCCCCCCCCC(=O)N[C@@H](CCCNC(=N)N[N+](=O)[O-])C(=O)N[C@@H](CC(C)C)B(O)O [E.2.1, Boronic acid, [(1R)-1-[[(2S)-5-[[imino(nitroamino)methyl]amino]-2-[(1-oxodecyl)amino]-1-oxopentyl]amino]-3-methylbutyl]] |
| < 10 | < 200 | CCCCCCCCCCCNC(=O)N[C@@H](CCCNC(=N)N[N+](=O)[O-])C(=O)N[C@@H](CC(C)C)B1O[C@@H]2C[C@@H]3C[C@@H](C3(C)C)[C@]2(C)O1 [D.6.5, N-[(1S)-1-[[[(1R)-1-[(3aS,4S,6S,7aR)-hexahydro-3a,5,5-trimethyl-4,6-methano-1,3,2-benzodioxaborol-2-yl]-3-methylbutyl]amino]carbonyl]-4-[[imino(nitroamino)methyl]amino]butyl]-N′-undecylurea] |
| < 10 | 2000 to 10000 | Cc1ccc(CSCCC(=O)N[C@@H](CCCNC(=N)N[N+](=O)[O-])C(=O)N[C@@H](CC(C)C)B(O)O)cc1 [D.7.26, Boronic acid, [(1R)-1-[[(2S)-5-[[imino(nitroamino)methyl]amino]-2-[[3-[(4-methylbenzyl)sulfanyl]propanoyl]amino]-1-oxopentyl]amino]-3-methylbutyl]] |
| < 10 | < 200 | CCCCCCCCC(C)(C)C(=O)N[C@H](C(=O)N[C@@H](CC(C)C)B(O)O)[C@@H](C)O [E.3.6, Boronic acid, [(1R)-1-[[(2S,3R)-3-hydroxy-2-[(2,2 dimethyl-decanoyl)amino]-1-oxobutyl]amino]-3-methylbutyl]] |
| < 10 | < 200 | COc1ccc(C(=O)N[C@@H](CCCNC(=N)N[N+](=O)[O-])C(=O)N[C@@H](CC(C)C)B2O[C@@H]3C[C@@H]4C[C@@H](C4(C)C)[C@]3(C)O2)cc1F [D.3.94, 3-Fluoro-4-methoxybenzamide,N-[(1S)-1-[[[(1R)-1-[(3aS,4S,6S,7aR)-hexahydro-3a,5,5-trimethyl-4,6-methano-1,3,2-benzodioxaborol-2-yl]-3-methylbutyl]amino]carbonyl]-4-[[imino(nitroamino)methyl]amino]butyl]] |
| < 10 | 200 to 2000 | CC(C)C[C@H](NC(=O)[C@H](CCCNC(=N)N[N+](=O)[O-])NC(=O)CCN1C(=O)c2ccccc2C1=O)B1O[C@@H]2C[C@@H]3C[C@@H](C3(C)C)[C@]2(C)O1 [D.1.3, 3-(1,3-Dioxo-1,3-dihydro-isoindol-2-yl)-propanamide,N-[(1S)-1-[[[(1R)-1-[(3aS,4S,6S,7aR)-hexahydro-3a,5,5-trimethyl-4,6-methano-1,3,2-benzodioxaborol-2-yl]-3-methylbutyl]amino]carbonyl]-4-[[imino(nitroamino)methyl]amino]butyl]] |

— patent US8546608B2, “Proteasome inhibitors and methods of using the same” (Cephalon, Inc., priority 2003, dated 2013)
